Measured values published in ChEMBL document CHEMBL6153055, “Design, Synthesis, and Pharmacological Evaluation of Nonsteroidal Tricyclic Ligands as Modulators of GABAA Receptors” (J Med Chem, 2025).
The source made the active and inactive calls. No cut-off for these calls is given here.

What was measured:
[1] = Solubility of the compound at 100 uM; assay type: physicochemical
[2] = biological target: T1, Gamma-aminobutyric acid receptor subunit alpha-1/beta-3/gamma-2 (Mus musculus) (UniProt P22723+P62812+P63080); assay: Negative allosteric modulation of recombinant mouse alpha1beta3gamma2 GABAA receptor expressed in GFP tagged HEK293 cells at 100 uM by whole-cell voltage clamp electrophysiological analysis; assay type: cell-based; settings: filed as negative allosteric modulator
[3] = biological target: T2, Gamma-aminobutyric acid receptor subunit alpha-1/beta-3/gamma-2 (Mus musculus, UniProt P22723+P62812+P63080); assay: Negative allosteric modulation of recombinant mouse alpha1beta3gamma2 GABAA receptor expressed in GFP tagged HEK293 cells at peak current by whole-cell voltage clamp electrophysiological analysis; assay type: cell-based
T2 sequence (P22723 whole entry): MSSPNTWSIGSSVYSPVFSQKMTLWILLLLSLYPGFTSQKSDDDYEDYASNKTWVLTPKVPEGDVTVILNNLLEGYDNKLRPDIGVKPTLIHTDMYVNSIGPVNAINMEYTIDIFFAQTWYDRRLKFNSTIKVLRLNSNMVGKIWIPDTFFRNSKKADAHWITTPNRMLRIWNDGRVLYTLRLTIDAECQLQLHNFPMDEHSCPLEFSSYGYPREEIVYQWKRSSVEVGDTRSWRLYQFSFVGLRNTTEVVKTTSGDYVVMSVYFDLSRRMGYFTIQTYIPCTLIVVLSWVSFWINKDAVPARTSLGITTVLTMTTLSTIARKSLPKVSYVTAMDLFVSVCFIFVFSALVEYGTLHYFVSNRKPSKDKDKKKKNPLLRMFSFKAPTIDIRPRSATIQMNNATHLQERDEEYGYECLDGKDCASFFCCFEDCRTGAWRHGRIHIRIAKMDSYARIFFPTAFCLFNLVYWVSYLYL
T2 sequence (P62812 whole entry): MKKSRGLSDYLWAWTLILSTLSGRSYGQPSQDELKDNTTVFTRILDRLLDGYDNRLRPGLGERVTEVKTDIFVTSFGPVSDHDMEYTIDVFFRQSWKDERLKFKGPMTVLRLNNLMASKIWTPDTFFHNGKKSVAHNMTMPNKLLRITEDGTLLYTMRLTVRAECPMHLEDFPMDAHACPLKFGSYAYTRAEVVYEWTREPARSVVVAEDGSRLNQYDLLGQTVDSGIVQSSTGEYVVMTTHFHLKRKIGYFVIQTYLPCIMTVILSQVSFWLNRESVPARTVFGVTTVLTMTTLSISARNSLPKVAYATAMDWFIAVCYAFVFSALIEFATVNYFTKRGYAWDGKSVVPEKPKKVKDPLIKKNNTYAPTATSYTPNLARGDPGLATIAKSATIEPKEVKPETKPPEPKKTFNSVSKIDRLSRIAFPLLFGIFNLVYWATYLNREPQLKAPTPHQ
T2 sequence (P63080 whole entry): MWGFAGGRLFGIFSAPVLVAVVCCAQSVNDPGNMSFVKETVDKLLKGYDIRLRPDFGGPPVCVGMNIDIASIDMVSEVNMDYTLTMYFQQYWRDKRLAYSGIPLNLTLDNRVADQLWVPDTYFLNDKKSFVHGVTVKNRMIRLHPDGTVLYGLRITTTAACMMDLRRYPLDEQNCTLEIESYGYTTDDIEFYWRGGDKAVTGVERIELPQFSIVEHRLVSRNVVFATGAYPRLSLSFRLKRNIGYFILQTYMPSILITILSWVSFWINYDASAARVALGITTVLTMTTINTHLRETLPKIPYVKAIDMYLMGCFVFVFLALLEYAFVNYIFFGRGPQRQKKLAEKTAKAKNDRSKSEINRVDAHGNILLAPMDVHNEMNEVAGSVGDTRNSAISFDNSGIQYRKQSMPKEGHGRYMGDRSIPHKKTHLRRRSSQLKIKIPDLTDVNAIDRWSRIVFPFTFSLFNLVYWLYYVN

[4] = biological target: T2, Gamma-aminobutyric acid receptor subunit alpha-1/beta-3/gamma-2; assay: Negative allosteric modulation of recombinant mouse alpha1beta3gamma2 GABAA receptor expressed in GFP tagged HEK293 cells at steady state current by whole-cell voltage clamp electrophysiological analysis; assay type: cell-based
[5] = biological target: T1, Gamma-aminobutyric acid receptor subunit alpha-1/beta-3/gamma-2 (Mus musculus); assay: Positive allosteric modulation of recombinant mouse alpha1beta3gamma2 GABAA receptor expressed in GFP tagged HEK293 cells assessed as maximum GABA current at 100 uM by whole-cell voltage clamp electrophysiological analysis; assay type: cell-based; settings: filed as positive allosteric modulator
[6] = biological target: T1, Gamma-aminobutyric acid receptor subunit alpha-1/beta-3/gamma-2 (Mus musculus); assay: Negative allosteric modulation of recombinant mouse alpha1beta3gamma2 GABAA receptor expressed in GFP tagged HEK293 cells at 100 uM by whole-cell voltage clamp electrophysiological analysis relative control; assay type: cell-based; settings: filed as negative allosteric modulator
[7] = biological target: T3, GABA-A receptor; anion channel (Rattus norvegicus) (UniProt O09028+P15431+P18506+P18508+P19969+P20236+P23574+P23576+P28471+P28473+P30191+P62813+P63079+P63138+Q91ZM7+Q9ES14); assay: Positive allosteric modulation of GABAA receptor in Sprague-Dawley rat Hippocampal neuron assessed as decrease in spontaneous IPSC frequency at 10 uM by whole-cell voltage-clamp electrophysiological analysis; assay type: cell-based; settings: filed as positive allosteric modulator
[8] = biological target: T3, GABA-A receptor; anion channel (Rattus norvegicus); assay: Positive allosteric modulation of GABAA receptor in Sprague-Dawley rat Hippocampal neuron assessed as prolongation of spontaneous IPSC decay time at 10 uM by whole-cell voltage-clamp electrophysiological analysis; assay type: cell-based; settings: filed as positive allosteric modulator
HEK293 [9] = assay: Positive allosteric modulation of recombinant mouse alpha1 Q241L mutant/beta3/gamma2 GABAA receptor expressed in GFP tagged HEK293 cells by whole-cell voltage clamp electrophysiological analysis; assay type: cell-based
[10] = biological target: T3, GABA-A receptor; anion channel (Rattus norvegicus); assay: Positive allosteric modulation of GABAA receptor in Sprague-Dawley rat Hippocampal neuron assessed as potentiation of tonic holding current at 30 uM by whole-cell voltage-clamp electrophysiological analysis; assay type: cell-based; settings: filed as positive allosteric modulator
[11] = biological target: T3, GABA-A receptor; anion channel (Rattus norvegicus); assay: Positive allosteric modulation of GABAA receptor in Sprague-Dawley rat Hippocampal neuron assessed as reduction in spontaneous IPSC amplitude at 10 uM by whole-cell voltage-clamp electrophysiological analysis; assay type: cell-based; settings: filed as positive allosteric modulator
[12] = biological target: T1, Gamma-aminobutyric acid receptor subunit alpha-1/beta-3/gamma-2 (Mus musculus); assay: Positive allosteric modulation of recombinant mouse alpha1beta3gamma2 GABAA receptor expressed in GFP tagged HEK293 cells assessed as maximum GABA current by measuring maximum activation at 100 uM by whole-cell voltage clamp electrophysiological analysis relative to control; assay type: cell-based; settings: filed as positive allosteric modulator
HEK293 [13] = assay: Negative allosteric modulation of recombinant mouse alpha1 Q241L mutant/beta3/gamma2 GABAA receptor expressed in GFP tagged HEK293 cells assessed as inhibition of peak current at 100 uM by whole-cell voltage clamp electrophysiological analysis; assay type: cell-based
HEK293 [14] = assay: Positive allosteric modulation of recombinant mouse alpha1 Q241L mutant/beta3/gamma2 GABAA receptor expressed in GFP tagged HEK293 cells at 100 uM by whole-cell voltage clamp electrophysiological analysis; assay type: cell-based
[15] = biological target: T1, Gamma-aminobutyric acid receptor subunit alpha-1/beta-3/gamma-2 (Mus musculus); assay: Positive allosteric modulation of recombinant wild type mouse alpha1beta3gamma2 GABAA receptor expressed in GFP tagged HEK293 cells at 100 uM by whole-cell voltage clamp electrophysiological analysis; assay type: cell-based
HEK293 [16] = assay: Negative allosteric modulation of recombinant mouse alpha1 Q241L mutant/beta3/gamma2 GABAA receptor expressed in GFP tagged HEK293 cells assessed as inhibition of steady-state level at 100 uM by whole-cell voltage clamp electrophysiological analysis; assay type: cell-based

C[C@]12CC[C@H](c3ccccc3)C[C@H]1CC[C@@H]2OS(=O)(=O)O (mixture of isomers)
solubility [1]: soluble | Activity [2]: Active | IC50 [3]: 128 µM | IC50 [4]: 54 µM

O=S(=O)(O)O[C@H]1CC[C@@H](c2ccc3c(c2)CCC3)CC1
solubility [1]: soluble | Activity [2]: Active | IC50 [3]: 190 µM | IC50 [4]: 53 µM | Activity [5]: Active

C[C@]12CC[C@H](OS(=O)(=O)O)CC1=CCc1cc(Br)ccc12
Activity [6]: 100% | solubility [1]: soluble | Activity [2]: Active | IC50 [3]: 10 µM | IC50 [4]: 10 µM | Activity [5]: Active

C[C@]12CC[C@@H](c3ccccc3)C[C@H]1CC[C@@H]2OS(=O)(=O)O (mixture of isomers)
solubility [1]: soluble | Activity [2]: Active | IC50 [3]: 76 µM | IC50 [4]: 42 µM | Activity [5]: Active

O=S(=O)(O)O[C@H]1CC[C@H](c2ccc3c(c2)CCC3)CC1
solubility [1]: soluble | Activity [2]: Active | IC50 [3]: 148 µM | IC50 [4]: 73 µM

C[C@@]12CC/C(=C/CO)C[C@H]1CCc1ccccc12
solubility [1]: soluble | Activity [2]: Active | IC50 [3]: 114 µM | IC50 [4]: 23 µM

CC(=O)c1cccc(C2=CC[C@@]3(C)[C@H](CC[C@@H]3O)C2)c1
Activity [7]: Active | Activity [8]: Active | Activity (HEK293 [9]): inactive | Activity [10]: Active | Activity [11]: Active

O[C@H]1CC[C@H](c2ccc3c(c2)CCC3)CC1
solubility [1]: soluble | Activity [2]: Active | IC50 [3]: 59 µM | IC50 [4]: 14 µM | Activity [5]: Active

CC(=O)c1cccc(C2=C[C@H]3CC[C@H](O)[C@@]3(C)CC2)c1
Activity (HEK293 [9]): inactive

C[C@]12CC[C@@H](c3ccccc3)C[C@H]1CC[C@@H]2O (relative stereo)
Activity [6]: 100% | solubility [1]: soluble | Activity [2]: Active | IC50 [3]: 27 µM | IC50 [4]: 21 µM | Activity [5]: Active

C[C@]12CC[C@H](c3ccccc3)C[C@H]1CC[C@@H]2O (mixture of isomers)
Activity [6]: 100% | solubility [1]: soluble | Activity [2]: Active | IC50 [3]: 37 µM | IC50 [4]: 20 µM | Activity [5]: Active | Emax [12]: 43%

C[C@@]12CCC(CCOS(=O)(=O)O)C[C@H]1CCc1ccccc12 (mixture of isomers)
Activity (HEK293 [13]): inactive | Activity [6]: 100% | Activity (HEK293 [14]): inactive | solubility [1]: soluble | Activity [2]: Active | IC50 [3]: 15 µM | Activity [15]: inactive | IC50 [4]: 12 µM | Activity (HEK293 [16]): inactive

CC(=O)[C@H]1CC[C@H]2[C@@H]3CC=C4C[C@@H](OS(=O)(=O)O)CC[C@]4(C)[C@H]3CC[C@]12C
IC50 [3]: 292 µM | IC50 [4]: 3.2 µM

O[C@H]1CC[C@@H](c2ccc3c(c2)CCC3)CC1
solubility [1]: soluble | Activity [2]: Active | IC50 [3]: 55 µM | IC50 [4]: 18 µM | Activity [5]: Active

C[C@@]12CCC(CCO)C[C@H]1CCc1ccccc12 (mixture of isomers)
Activity (HEK293 [13]; filed as negative allosteric modulator): Active | Activity [6]: 100% | Activity (HEK293 [14]): inactive | solubility [1]: soluble | Activity [2]: Active | IC50 [3]: 29 µM | Activity [15]: inactive | IC50 [4]: 14 µM | Activity (HEK293 [16]): inactive
